Reference: patent US9695155B2, “Herbicidal substituted pyrimidinyloxy benzene compounds” (E. I. DU PONT DE NEMOURS AND COMPANY, priority 2013, dated 2017)

Experiments:
lambsquarters = assay: Test D postemergence; type: in vivo, Chenopodium album; conditions: Chenopodium album, post-emergence
Method in brief: (§1)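 Solvent/surfactant formulations are sprayed pre (silt loam) or post (1–4 leaf plants, 2–18 cm). Plants stay 7–21 days in controlled conditions before a visual 0–100 score is given.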

Russian thistle = assay: Test D preemergence; type: in vivo, Salsola kali; design: key: 0 = no effect, 100 = complete control
Excerpt: Seeds of plant species selected from bluegrass (annual bluegrass, Poa annua), blackgrass (Alopecurus myosuroides), canarygrass (littleseed canarygrass, Phalaris minor), chickweed (common chickweed, Stellaria media), galium (catchweed bedstraw, Galium aparine), bromegrass, downy (downy bromegrass, Bromus tectorum), field poppy (Papaver rhoeas), field violet (Viola arvensis), green foxtail (Setaria viridis), deadnettle (henbit deadnettle, Lamium amplexicaule), Italian ryegrass (Lolium multiflorum), kochia (Kochia scoparia), lambsquarters (Chenopodium album), oilseed rape (Brassica napus), pigweed (Amaranthus retroflexus), chamomile (scentless chamomile, Matricaria inodora), Russian thistle (Salsola kali), speedwell (bird's-eye speedwell, Veronica persica), spring barley (Hordeum vulgare), spring wheat (Triticum aestivum), wild buckwheat (Polygonum convolvulus), wild mustard (Sinapis arvensis), wild oat (Avena fatua), wild radish (Raphanus raphanistrum), windgrass (Apera spica-venti), winter barley (Hordeum vulgare), and winter wheat (Triticum aestivum) were planted into a silt loam soil and treated preemergence with test chemicals formulated in a non-phytotoxic solvent mixture which included a surfactant.
At the same time, these species were planted in pots containing Redi-Earth® planting medium (Scotts Company, 14111 Scottslawn Road, Marysville, Ohio 43041) comprising spaghnum peat moss, vermiculite, wetting agent and starter nutrients and treated with postemergence applications of the test chemicals formulated in the same manner. Plants ranged in height from 2 to 18 cm (1- to 4-leaf stage). Treated plants and controls were maintained in a controlled growth environment for 7 to 21 days after which time all species were compared to controls and visually evaluated. Plant response ratings, summarized in Table D, are based on a scale of 0 to 100 where 0 is no effect and 100 is complete control. A dash (-) response means no test result.

field poppy = assay: Test D postemergence; type: in vivo, Papaver rhoeas; conditions: Papaver rhoeas, post-emergence
Method in brief: as §1

wild oat = assay: Test D postemergence; type: in vivo, Avena fatua; conditions: Avena fatua, post-emergence
Method in brief: as §1

canarygrass = assay: Test D postemergence; type: in vivo, Phalaris minor; conditions: Phalaris minor, post-emergence
Method in brief: as §1

kochia = assay: Test D preemergence; type: in vivo, Kochia scoparia; conditions: Bassia scoparia, pre-emergence
Method in brief: as §1

winter barley = assay: Test D postemergence; type: in vivo, Hordeum vulgare; conditions: Hordeum vulgare, post-emergence, Postemergence, scale 0 to 100 (0 no effect, 100 complete control), read-out: Plant response rating, Barley, Winter
Method in brief: as §1

spring barley = assay: Test D postemergence; type: in vivo, Hordeum vulgare; conditions: Hordeum vulgare, post-emergence, Postemergence, scale 0 to 100 (0 no effect, 100 complete control), read-out: Plant response rating, Barley, Spring
Method in brief: as §1

deadnettle = assay: Test D preemergence; type: in vivo, Lamium amplexicaule; conditions: Lamium amplexicaule, pre-emergence
Method in brief: as §1

Fc1cccc(Oc2ncc(Cl)cn2)c1-n1cc(C(F)F)nn1 [Compound 141, 5-chloro-2-[2-[4-(difluoromethyl)-1H-1,2,3-triazol-1-yl]-3-fluorophenoxy]pyrimidine]
pest or weed control at 16 g/ha (lambsquarters; 16 g ai/ha, scale 0-100, read-out: Plant response rating, Lambsquarters): 80% | pest or weed control at 31 g/ha (lambsquarters; 31 g ai/ha, scale 0 to 100 (0 no effect, 100 complete control), read-out: Plant response rating, Lambsquarters): 95% | pest or weed control at 62 g/ha (lambsquarters; 62 g ai/ha, scale 0 to 100 (0 no effect, 100 complete control), read-out: Plant response rating, Lambsquarters): 95% | pest or weed control at 125 g/ha (lambsquarters; 125 g ai/ha, scale 0 to 100 (0 no effect, 100 complete control), read-out: Plant response rating, Lambsquarters): 98% | Plant response rating, Russian Thistle (Russian thistle; 16 g ai/ha, scale 0 (no effect) to 100 (complete control)): 15 | Plant response rating, Russian Thistle (Russian thistle; 31 g ai/ha, scale 0 (no effect) to 100 (complete control)): 50 | Plant response rating, Russian Thistle (Russian thistle; 62 g ai/ha, scale 0-100): 75 | Plant response rating, Russian Thistle (Russian thistle; 125 g ai/ha, scale 0-100): 100 | pest or weed control at 16 g/ha (field poppy; 16 g ai/ha, scale 0-100, read-out: Plant response rating, Field Poppy): 40% | pest or weed control at 31 g/ha (field poppy; 31 g ai/ha, scale 0 to 100 (0 no effect, 100 complete control), read-out: Plant response rating, Field Poppy): 95% | pest or weed control at 62 g/ha (field poppy; 62 g ai/ha, scale 0 to 100 (0 no effect, 100 complete control), read-out: Plant response rating, Field Poppy): 90% | pest or weed control at 125 g/ha (field poppy; 125 g ai/ha, scale 0 to 100 (0 no effect, 100 complete control), read-out: Plant response rating, Field Poppy): 85% | pest or weed control at 16 g/ha (wild oat; 16 g ai/ha, scale 0-100, read-out: Plant response rating, Oat, Wild): 5% | pest or weed control at 31 g/ha (wild oat; 31 g ai/ha, scale 0 to 100 (0 no effect, 100 complete control), read-out: Plant response rating, Oat, Wild): 10% | pest or weed control at 62 g/ha (wild oat; 62 g ai/ha, scale 0 to 100 (0 no effect, 100 complete control), read-out: Plant response rating, Oat, Wild): 15% | pest or weed control at 125 g/ha (wild oat; 125 g ai/ha, scale 0 to 100 (0 no effect, 100 complete control), read-out: Plant response rating, Oat, Wild): 30% | pest or weed control at 16 g/ha (canarygrass; 16 g ai/ha, scale 0-100, read-out: Plant response rating, Canarygrass): 10% | pest or weed control at 31 g/ha (canarygrass; 31 g ai/ha, scale 0 to 100 (0 no effect, 100 complete control), read-out: Plant response rating, Canarygrass): 25% | pest or weed control at 62 g/ha (canarygrass; 62 g ai/ha, scale 0 to 100 (0 no effect, 100 complete control), read-out: Plant response rating, Canarygrass): 35% | pest or weed control at 125 g/ha (canarygrass; 125 g ai/ha, scale 0 to 100 (0 no effect, 100 complete control), read-out: Plant response rating, Canarygrass): 55% | pest or weed control at 16 g/ha (kochia; 16 g ai/ha, scale 0 (no effect) to 100 (complete control), read-out: Plant response rating, Kochia): 85% | pest or weed control at 31 g/ha (kochia; 31 g ai/ha, scale 0-100, read-out: Plant response rating, Kochia): 100% | pest or weed control at 62 g/ha (kochia; 62 g ai/ha, scale 0-100, read-out: Plant response rating, Kochia): 100% | pest or weed control at 125 g/ha (kochia; 125 g ai/ha, scale 0-100, read-out: Plant response rating, Kochia): 100% | plant injury at 16 g/ha (winter barley; 16 g ai/ha): 20% | plant injury at 31 g/ha (winter barley; 31 g ai/ha): 20% | plant injury at 62 g/ha (winter barley; 62 g ai/ha): 25% | plant injury at 125 g/ha (winter barley; 125 g ai/ha): 35% | plant injury at 16 g/ha (spring barley; 16 g ai/ha): 10% | plant injury at 31 g/ha (spring barley; 31 g ai/ha): 20% | plant injury at 62 g/ha (spring barley; 62 g ai/ha): 25% | plant injury at 125 g/ha (spring barley; 125 g ai/ha): 25% | pest or weed control at 16 g/ha (deadnettle; 16 g ai/ha, scale 0 (no effect) to 100 (complete control), read-out: Plant response rating, Deadnettle): 90% | pest or weed control at 31 g/ha (deadnettle; 31 g ai/ha, scale 0-100, read-out: Plant response rating, Deadnettle): 100% | pest or weed control at 62 g/ha (deadnettle; 62 g ai/ha, scale 0-100, read-out: Plant response rating, Deadnettle): 98% | pest or weed control at 125 g/ha (deadnettle; 125 g ai/ha, scale 0-100, read-out: Plant response rating, Deadnettle): 100%
